Test results as given in PubChem BioAssay (NCI).
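Grown in 96-well plates, cells were treated for 48 hours with each compound at five concentrations. Insufficient inhibition: endpoint recorded as highest concentration tested. GI50 = concentration required for 50% inhibition of growth. TGI marks complete inhibition of growth.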

Columns and labels:
Test in all cases: NCI anticancer screen, dose series, 48 h
786-0 renal = tested on: 786-0 renal
A498 renal = tested on: A498 renal
A549 NSCLC = tested on: A549 NSCLC
ACHN renal = tested on: ACHN renal
BT-549 breast = tested on: BT-549 breast
CAKI-1 renal = tested on: CAKI-1 renal
CCRF-CEM leukemia = tested on: CCRF-CEM leukemia
COLO 205 colon = tested on: COLO 205 colon
DU-145 prostate = tested on: DU-145 prostate
EKVX NSCLC = tested on: EKVX NSCLC
HCC-2998 colon = tested on: HCC-2998 colon
HCT-15 colon = tested on: HCT-15 colon
HL-60(TB) leukemia = tested on: HL-60(TB) leukemia
HOP-62 NSCLC = tested on: HOP-62 NSCLC
HOP-92 NSCLC = tested on: HOP-92 NSCLC
HS 578T breast = tested on: HS 578T breast
HT29 colon = tested on: HT29 colon
IGROV1 ovarian = tested on: IGROV1 ovarian
K-562 leukemia = tested on: K-562 leukemia
KM12 colon = tested on: KM12 colon
LOX IMVI melanoma = tested on: LOX IMVI melanoma
MALME-3M melanoma = tested on: MALME-3M melanoma
MCF7 breast = tested on: MCF7 breast
MDA-MB-231 breast = tested on: MDA-MB-231 breast
MDA-MB-435 = tested on: MDA-MB-435
MOLT-4 leukemia = tested on: MOLT-4 leukemia
NCI-H226 lung = tested on: NCI-H226 lung
NCI-H23 lung = tested on: NCI-H23 lung
NCI-H460 lung = tested on: NCI-H460 lung
NCI-H522 lung = tested on: NCI-H522 lung
NCI/ADR-RES ovarian = tested on: NCI/ADR-RES ovarian
OVCAR-3 ovarian = tested on: OVCAR-3 ovarian
OVCAR-4 ovarian = tested on: OVCAR-4 ovarian
OVCAR-5 ovarian = tested on: OVCAR-5 ovarian
OVCAR-8 ovarian = tested on: OVCAR-8 ovarian
PC-3 prostate = tested on: PC-3 prostate
RPMI-8226 leukemia = tested on: RPMI-8226 leukemia
RXF 393 renal = tested on: RXF 393 renal
SF-268 CNS = tested on: SF-268 CNS
SF-295 CNS = tested on: SF-295 CNS
SF-539 CNS = tested on: SF-539 CNS
SK-MEL-2 melanoma = tested on: SK-MEL-2 melanoma
SK-MEL-28 melanoma = tested on: SK-MEL-28 melanoma
SK-MEL-5 melanoma = tested on: SK-MEL-5 melanoma
SK-OV-3 ovarian = tested on: SK-OV-3 ovarian
SN12C renal = tested on: SN12C renal
SNB-19 CNS = tested on: SNB-19 CNS
SNB-75 CNS = tested on: SNB-75 CNS
SR leukemia = tested on: SR leukemia
SW-620 colon = tested on: SW-620 colon
T-47D breast = tested on: T-47D breast
TK-10 renal = tested on: TK-10 renal
U251 CNS = tested on: U251 CNS
UACC-257 melanoma = tested on: UACC-257 melanoma
UACC-62 melanoma = tested on: UACC-62 melanoma
UO-31 renal = tested on: UO-31 renal

With `COc1cc2c3c(n(CCCCOC(=O)C(F)(F)F)c(=O)c2cc1OC)-c1cc2c(cc1C3=O)OCO2` the GI50 (786-0 renal) was 0.982 µM, the TGI (786-0 renal) was 7.65 µM and the GI50 (A498 renal) was > 44.4 µM. The TGI (A498 renal) was > 100 µM, the GI50 (A549 NSCLC) was > 100 µM and the TGI (A549 NSCLC) was > 100 µM. For the same compound, the GI50 (ACHN renal) was > 48.3 µM, the TGI (ACHN renal) was > 100 µM and the GI50 (BT-549 breast) was > 100 µM. The TGI (BT-549 breast) was > 100 µM, the GI50 (CAKI-1 renal) was > 21.8 µM and the TGI (CAKI-1 renal) was > 100 µM. For the same compound, the GI50 (CCRF-CEM leukemia) was 5.01 µM, the TGI (CCRF-CEM leukemia) was > 100 µM and the GI50 (COLO 205 colon) was > 100 µM. The TGI (COLO 205 colon) was > 100 µM, the GI50 (DU-145 prostate) was > 80 µM and the TGI (DU-145 prostate) was > 100 µM. The GI50 (EKVX NSCLC) was > 100 µM, the TGI (EKVX NSCLC) was > 100 µM and the GI50 (HCC-2998 colon) was > 100 µM. The TGI (HCC-2998 colon) was > 100 µM, the GI50 (HCT-15 colon) was > 100 µM and the TGI (HCT-15 colon) was > 100 µM. The GI50 (HL-60(TB) leukemia) was > 100 µM, the TGI (HL-60(TB) leukemia) was > 100 µM and the GI50 (HOP-62 NSCLC) was 10.4 µM. For the same compound, the GI50 (HOP-92 NSCLC) was > 82.9 µM, the TGI (HOP-92 NSCLC) was > 100 µM and the GI50 (HS 578T breast) was > 93.1 µM. The TGI (HS 578T breast) was > 100 µM, the GI50 (HT29 colon) was > 100 µM and the TGI (HT29 colon) was > 100 µM. The GI50 (IGROV1 ovarian) was > 26.3 µM, the TGI (IGROV1 ovarian) was > 100 µM and the GI50 (K-562 leukemia) was > 50.4 µM. The TGI (K-562 leukemia) was > 100 µM, the GI50 (KM12 colon) was > 100 µM and the TGI (KM12 colon) was > 100 µM. The GI50 (LOX IMVI melanoma) was > 100 µM, the TGI (LOX IMVI melanoma) was > 100 µM and the GI50 (MALME-3M melanoma) was > 100 µM. For the same compound, the TGI (MALME-3M melanoma) was > 100 µM, the GI50 (MCF7 breast) was > 48.8 µM and the TGI (MCF7 breast) was > 100 µM. For the same compound, the GI50 (MDA-MB-231 breast) was 31.9 µM, the TGI (MDA-MB-231 breast) was > 82.2 µM and the GI50 (MDA-MB-435) was > 100 µM. The TGI (MDA-MB-435) was > 100 µM, the GI50 (MOLT-4 leukemia) was 10.1 µM and the TGI (MOLT-4 leukemia) was > 77.3 µM. For the same compound, the GI50 (NCI-H226 lung) was 98.6 µM, the TGI (NCI-H226 lung) was > 100 µM and the GI50 (NCI-H23 lung) was > 100 µM. The TGI (NCI-H23 lung) was > 100 µM, the TGI (NCI-H460 lung) was > 100 µM and the TGI (NCI-H522 lung) was > 100 µM. The GI50 (NCI/ADR-RES ovarian) was > 100 µM, the TGI (NCI/ADR-RES ovarian) was > 100 µM and the GI50 (OVCAR-3 ovarian) was > 89.8 µM. The TGI (OVCAR-3 ovarian) was > 100 µM, the GI50 (OVCAR-4 ovarian) was > 100 µM and the TGI (OVCAR-4 ovarian) was > 100 µM. For the same compound, the GI50 (OVCAR-5 ovarian) was > 100 µM, the TGI (OVCAR-5 ovarian) was > 100 µM and the GI50 (OVCAR-8 ovarian) was > 52.6 µM. For the same compound, the TGI (OVCAR-8 ovarian) was > 100 µM, the GI50 (PC-3 prostate) was > 100 µM and the TGI (PC-3 prostate) was > 100 µM. For the same compound, the GI50 (RPMI-8226 leukemia) was > 20.4 µM, the TGI (RPMI-8226 leukemia) was > 100 µM and the GI50 (RXF 393 renal) was > 100 µM. The TGI (RXF 393 renal) was > 100 µM, the GI50 (SF-268 CNS) was > 100 µM and the TGI (SF-268 CNS) was > 100 µM. For the same compound, the GI50 (SF-295 CNS) was > 41.7 µM, the TGI (SF-295 CNS) was > 100 µM and the GI50 (SF-539 CNS) was > 100 µM. The TGI (SF-539 CNS) was > 100 µM, the GI50 (SK-MEL-2 melanoma) was > 100 µM and the TGI (SK-MEL-2 melanoma) was > 100 µM. For the same compound, the GI50 (SK-MEL-28 melanoma) was > 100 µM, the TGI (SK-MEL-28 melanoma) was > 100 µM and the GI50 (SK-MEL-5 melanoma) was > 100 µM. The TGI (SK-MEL-5 melanoma) was > 100 µM, the GI50 (SK-OV-3 ovarian) was > 100 µM and the TGI (SK-OV-3 ovarian) was > 100 µM. For the same compound, the GI50 (SN12C renal) was > 93.9 µM, the TGI (SN12C renal) was > 100 µM and the GI50 (SNB-19 CNS) was > 100 µM. The TGI (SNB-19 CNS) was > 100 µM, the GI50 (SNB-75 CNS) was > 86.8 µM and the TGI (SNB-75 CNS) was > 100 µM. The GI50 (SR leukemia) was 0.589 µM, the TGI (SR leukemia) was 13.4 µM and the GI50 (SW-620 colon) was > 100 µM. The TGI (SW-620 colon) was > 100 µM, the GI50 (T-47D breast) was > 100 µM and the TGI (T-47D breast) was > 100 µM. The GI50 (TK-10 renal) was > 100 µM, the TGI (TK-10 renal) was > 100 µM and the GI50 (U251 CNS) was > 38.8 µM. The TGI (U251 CNS) was > 100 µM, the GI50 (UACC-257 melanoma) was > 100 µM and the TGI (UACC-257 melanoma) was > 100 µM. For the same compound, the GI50 (UACC-62 melanoma) was > 100 µM, the TGI (UACC-62 melanoma) was > 100 µM and the GI50 (UO-31 renal) was > 100 µM. The TGI (UO-31 renal) was > 100 µM.
